Read-outs that look alike come from different tables or passages of the source.
Experiment: Plasma pharmacokinetics of bimiralisib, non-compartmental analysis (LC-MS)
Type: in vivo, human
Details: for AUC(0-t) / Cmax / Tmax: human, plasma, oral; for Cmax: read-out: Cmax Mean (%CV)
Method: Blood samples were collected to enable full PK profiling of bimiralisib. The PK samples were taken pre-dose and at 0.5, 1, 2, 4, 6, 8, and 24 h post-dosing in the three schedules, with additional timepoints depending on the schedule (48 h in the continuous schedule, 12, 16, and 48 h in intermittent schedule A and 12, 16, and 72 h in intermittent schedule B). PK sampling was repeated on cycle 1 Day 8 (continuous schedule: pre-dose and 1 h post-dose; intermittent schedules A and B: pre-dose and 0.5, 1, 2, 4, 6, 8, and 24 h post-dose), on cycle 1 Day 15 (continuous schedule: pre-dose and 0.5, 1, 2, 4, 6 and 8 h post-dose; intermittent schedules A and B: pre-dose and 4 h post-dose), and on cycle 2 Day 1 (continuous dosing: pre-dose and 1 h post-dose). Samples were sent to a central laboratory for analysis using liquid-chromatography mass spectrometry. The pharmacokinetics of bimiralisib were determined by non-compartmental analysis. Area under the concentration vs. time curve (AUC) was calculated using the linear up log down trapezoidal method. Accumulation was calculated as the ratio of cycle 1 on Day 15 AUC0–8h versus cycle 1 on Day -3 AUC0–8h.

SMILES: Nc1cc(C(F)(F)F)c(-c2nc(N3CCOCC3)nc(N3CCOCC3)n2)cn1 [bimiralisib, 5-(4,6-Dimorpholino-1,3,5-triazin-2-yl)-4-(trifluoromethyl)pyridin-2-amine]
- AUC(0-t) (120 mg, Intermittent Dose Schedule A, 120 mg, Day -3, 4 patients, read-out: AUC0–8 Geometric Mean (%CV)): 2590 ng·h/mL
- AUC(0-t) (120 mg, Intermittent Dose Schedule A, 120 mg, Day -3, 4 patients, read-out: AUC0–24 Geometric Mean (%CV)): 5590 ng·h/mL
- Cmax (120 mg, Intermittent Dose Schedule A, 120 mg, Day -3, 4 patients): 549 ng/mL
- Tmax (120 mg, Intermittent Dose Schedule A, 120 mg, Day -3, 4 patients, read-out: Tmax Median, (Range)): 3 h
- AUC(0-t) (120 mg, Intermittent Dose Schedule B, 120 mg, Day 1, 3 patients, read-out: AUC0–8 Geometric Mean (%CV)): 1530 ng·h/mL
- AUC(0-t) (120 mg, Intermittent Dose Schedule B, 120 mg, Day 1, 3 patients, read-out: AUC0–24 Geometric Mean (%CV)): 3340 ng·h/mL
- Cmax (120 mg, Intermittent Dose Schedule B, 120 mg, Day 1, 3 patients): 471 ng/mL
- Tmax (120 mg, Intermittent Dose Schedule B, 120 mg, Day 1, 3 patients, read-out: Tmax Median, (Range)): 1 h
- AUC(0-t) (120 mg, Intermittent Dose Schedule B, 120 mg, Day 8, 3 patients, read-out: AUC0–8 Geometric Mean (%CV)): 2210 ng·h/mL
- AUC(0-t) (120 mg, Intermittent Dose Schedule B, 120 mg, Day 8, 3 patients, read-out: AUC0–24 Geometric Mean (%CV)): 5850 ng·h/mL
- Cmax (120 mg, Intermittent Dose Schedule B, 120 mg, Day 8, 3 patients): 594 ng/mL
- Tmax (120 mg, Intermittent Dose Schedule B, 120 mg, Day 8, 3 patients, read-out: Tmax Median, (Range)): 1 h
- AUC(0-t) (140 mg, Intermittent Dose Schedule A, 140 mg, Day 8, 6 patients, read-out: AUC0–8 Geometric Mean (%CV)): 3220 ng·h/mL
- Cmax (140 mg, Intermittent Dose Schedule A, 140 mg, Day 8, 6 patients): 923 ng/mL
- Tmax (140 mg, Intermittent Dose Schedule A, 140 mg, Day 8, 6 patients, read-out: Tmax Median, (Range)): 1 h
- AUC(0-t) (140 mg, Intermittent Dose Schedule A, 140 mg, Day 8, n = 3, read-out: AUC0–24 Geometric Mean (%CV)): 7590 ng·h/mL
- AUC(0-t) (140 mg, Intermittent Dose Schedule A, 140 mg, Day -3, 6 patients, read-out: AUC0–8 Geometric Mean (%CV)): 2580 ng·h/mL
- AUC(0-t) (140 mg, Intermittent Dose Schedule A, 140 mg, Day -3, 6 patients, read-out: AUC0–24 Geometric Mean (%CV)): 5810 ng·h/mL
- Cmax (140 mg, Intermittent Dose Schedule A, 140 mg, Day -3, 6 patients): 709 ng/mL
- Tmax (140 mg, Intermittent Dose Schedule A, 140 mg, Day -3, 6 patients, read-out: Tmax Median, (Range)): 1 h
- AUC(0-t) (140 mg, Intermittent Dose Schedule B, 140 mg, Day 1, 3 patients, read-out: AUC0–8 Geometric Mean (%CV)): 4150 ng·h/mL
- AUC(0-t) (140 mg, Intermittent Dose Schedule B, 140 mg, Day 1, 3 patients, read-out: AUC0–24 Geometric Mean (%CV)): 9740 ng·h/mL
- Cmax (140 mg, Intermittent Dose Schedule B, 140 mg, Day 1, 3 patients): 1010 ng/mL
- Tmax (140 mg, Intermittent Dose Schedule B, 140 mg, Day 1, 3 patients, read-out: Tmax Median, (Range)): 1 h
- AUC(0-t) (140 mg, Intermittent Dose Schedule B, 140 mg, Day 8, 3 patients, read-out: AUC0–8 Geometric Mean (%CV)): 5160 ng·h/mL
- Cmax (140 mg, Intermittent Dose Schedule B, 140 mg, Day 8, 3 patients): 1560 ng/mL
- Tmax (140 mg, Intermittent Dose Schedule B, 140 mg, Day 8, 3 patients, read-out: Tmax Median, (Range)): 1 h
- AUC(0-t) (140 mg, Intermittent Dose Schedule B, 140 mg, Day 8, n = 2, read-out: AUC0–24 Geometric Mean (%CV)): 12600 ng·h/mL
- AUC(0-t) (160 mg, Intermittent Dose Schedule A, 160 mg, Day 8, 3 patients, read-out: AUC0–8 Geometric Mean (%CV)): 4080 ng·h/mL
- AUC(0-t) (160 mg, Intermittent Dose Schedule A, 160 mg, Day 8, 3 patients, read-out: AUC0–24 Geometric Mean (%CV)): 11100 ng·h/mL
- Cmax (160 mg, Intermittent Dose Schedule A, 160 mg, Day 8, 3 patients): 857 ng/mL
- Tmax (160 mg, Intermittent Dose Schedule A, 160 mg, Day 8, 3 patients, read-out: Tmax Median, (Range)): 2 h
- AUC(0-t) (160 mg, Intermittent Dose Schedule A, 160 mg, Day -3, 3 patients, read-out: AUC0–8 Geometric Mean (%CV)): 2480 ng·h/mL
- AUC(0-t) (160 mg, Intermittent Dose Schedule A, 160 mg, Day -3, 3 patients, read-out: AUC0–24 Geometric Mean (%CV)): 5830 ng·h/mL
- Cmax (160 mg, Intermittent Dose Schedule A, 160 mg, Day -3, 3 patients): 539 ng/mL
- Tmax (160 mg, Intermittent Dose Schedule A, 160 mg, Day -3, 3 patients, read-out: Tmax Median, (Range)): 1 h
- AUC(0-t) (160 mg, Intermittent Dose Schedule B, 160 mg, Day 1, 3 patients, read-out: AUC0–8 Geometric Mean (%CV)): 1050 ng·h/mL
- AUC(0-t) (160 mg, Intermittent Dose Schedule B, 160 mg, Day 1, 3 patients, read-out: AUC0–24 Geometric Mean (%CV)): 3700 ng·h/mL
- Cmax (160 mg, Intermittent Dose Schedule B, 160 mg, Day 1, 3 patients): 317 ng/mL
- Tmax (160 mg, Intermittent Dose Schedule B, 160 mg, Day 1, 3 patients, read-out: Tmax Median, (Range)): 12 h
- AUC(0-t) (160 mg, Intermittent Dose Schedule B, 160 mg, Day 8, 3 patients, read-out: AUC0–8 Geometric Mean (%CV)): 1770 ng·h/mL
- Cmax (160 mg, Intermittent Dose Schedule B, 160 mg, Day 8, 3 patients): 325 ng/mL
- Tmax (160 mg, Intermittent Dose Schedule B, 160 mg, Day 8, 3 patients, read-out: Tmax Median, (Range)): 8 h
- AUC(0-t) (200 mg, Intermittent Dose Schedule A, 200 mg, Day 8, 4 patients, read-out: AUC0–8 Geometric Mean (%CV)): 4460 ng·h/mL
- Tmax (200 mg, Intermittent Dose Schedule A, 200 mg, Day 8, 4 patients, read-out: Tmax Median, (Range)): 2 h
- AUC(0-t) (200 mg, Intermittent Dose Schedule A, 200 mg, Day 8, n = 2, read-out: AUC0–24 Geometric Mean (%CV)): 15900 ng·h/mL
- AUC(0-t) (200 mg, Intermittent Dose Schedule A, 200 mg, Day -3, 4 patients, read-out: AUC0–8 Geometric Mean (%CV)): 3480 ng·h/mL
- AUC(0-t) (200 mg, Intermittent Dose Schedule A, 200 mg, Day -3, 4 patients, read-out: AUC0–24 Geometric Mean (%CV)): 7050 ng·h/mL
- Cmax (200 mg, Intermittent Dose Schedule A, 200 mg, Day -3, 4 patients): 1030 ng/mL
- Tmax (200 mg, Intermittent Dose Schedule A, 200 mg, Day -3, 4 patients, read-out: Tmax Median, (Range)): 2 h
- AUC(0-t) (200 mg, Intermittent Dose Schedule B, 200 mg, Day 1, 4 patients, read-out: AUC0–8 Geometric Mean (%CV)): 3190 ng·h/mL
- AUC(0-t) (200 mg, Intermittent Dose Schedule B, 200 mg, Day 1, 4 patients, read-out: AUC0–24 Geometric Mean (%CV)): 8010 ng·h/mL
- Cmax (200 mg, Intermittent Dose Schedule B, 200 mg, Day 1, 4 patients): 734 ng/mL
- Tmax (200 mg, Intermittent Dose Schedule B, 200 mg, Day 1, 4 patients, read-out: Tmax Median, (Range)): 1.5 h
- AUC(0-t) (200 mg, Intermittent Dose Schedule B, 200 mg, Day 8, 4 patients, read-out: AUC0–8 Geometric Mean (%CV)): 5800 ng·h/mL
- Cmax (200 mg, Intermittent Dose Schedule B, 200 mg, Day 8, 4 patients): 1200 ng/mL
- Tmax (200 mg, Intermittent Dose Schedule B, 200 mg, Day 8, 4 patients, read-out: Tmax Median, (Range)): 1.5 h
- AUC(0-t) (200 mg, Intermittent Dose Schedule B, 200 mg, Day 8, n = 3, read-out: AUC0–24 Geometric Mean (%CV)): 14700 ng·h/mL
- Tmax (after the first dose, all three dosing schedules, range, 0.5–48 h, read-out: Median time to reach the peak plasma concentration (Tmax)): 2 h
- Dose-exposure relationship (intermittent doses higher than 140 mg): less than linear dose-exposure relationship

From publication PMC10969742, “A Phase I Study of the Oral Dual-Acting Pan-PI3K/mTOR Inhibitor Bimiralisib in Patients with Advanced Solid Tumors” (Cancers, 2024)
